Test results published in patent US10208074B2, “Pyrazole compounds and method for making and using the compounds” (Rigel Pharmaceuticals, Inc., priority 2015, dated 2019).
Structures can show the parent of a compound that is named as a salt. Where two headings read alike, the source gives them in different places.

Tests used:
IL-23p19 = assay: LPS induced IL23p19 in THP-1 cells (with IFNγ primed) assay; assay type: cell-based, Human; settings: THP-1 cells, IFNγ primed, LPS 1 ug/mL, 18 hours, 10 pt, read-out: IL23-p19 ELISA, THP1-IFNy, LPS, 10 pt EC50
Summary of the method: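 Readout is secreted IL-23p19, quantified by chemiluminescent sandwich ELISA after 18 h LPS (1 ug/mL) stimulation of THP-1 cells that had been IFNγ-primed (50 ng/mL, ~18 h) and given compound 1 h beforehand at 37 °C. EC50 derived by curve fit; cytotoxicity tracked with Cell Titer Glo.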

IL-23 (p19/p40) = assay: IL23-p19 ELISA, Dendritic, LPS (compound screening using DC cells); assay type: cell-based, Human; settings: PBMC-derived DC cells, IFNγ primed, LPS 1 μg/ml, 18 hours, 10 pt, read-out: IL23-p19 ELISA, Dendritic, LPS, 10 pt, EC50
Summary of the method: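 IL-23 in supernatants quantified by sandwich ELISA (anti-p19 capture, biotinylated anti-p40 detection, chemiluminescent readout) after 18 h LPS (1 μg/ml) stimulation. Cells were monocyte-derived DCs (GM-CSF/IL-4, 7 d), IFNγ-primed 24 h and given compound 1 h before LPS; viability by CellTiter Glo.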

Row | EC50 (IL-23p19; Homo sapiens, THP-1, 18 h) | EC50 (IL-23 (p19/p40); Homo sapiens, 18 h) | Structure (SMILES) | also measured
1 | 0.284 µM | 0.0257 µM | O=C(Nc1cn(CC(F)(F)F)nc1-c1ccccn1)c1ccc(-c2cn[nH]c2)o1 [Compound I-117, 5-(1H-pyrazol-4-yl)-N-(3-(pyridin-2-yl)-1-(2,2,2-trifluoroethyl)-1H-pyrazol-4-yl)furan-2-carboxamide] | 
2 |  |  | CCOCCn1cc(NC(=O)c2ccc(-c3cn[nH]c3)o2)c(-c2nccs2)n1 [Compound I-118, N-(1-(2-ethoxyethyl)-3-(thiazol-2-yl)-1H-pyrazol-4-yl)-5-(1H-pyrazol-4-yl)furan-2-carboxamide formate] | EC50 (IL-23p19; formate): 0.0681 µM; EC50 (IL-23 (p19/p40); formate): 0.161 µM
3 |  |  | CCOCCn1cc(NC(=O)c2ccc(-c3cn[nH]c3)o2)c(-c2nccs2)n1 [Compound I-119, N-(1-(2-ethoxyethyl)-3-(thiazol-2-yl)-1H-pyrazol-4-yl)-5-(1H-pyrazol-4-yl)furan-2-carboxamide] | EC50 (IL-23p19): 0.153 µM; EC50 (IL-23 (p19/p40)): 0.43 µM
4 | 0.0528 µM | 0.0948 µM | O=C(Nc1cn(C2CCOC2)nc1-c1nccs1)c1ccc(-c2cn[nH]c2)o1 (centres unmarked) [Compound I-120, 5-(1H-pyrazol-4-yl)-N-(1-(tetrahydrofuran-3-yl)-3-(thiazol-2-yl)-1H-pyrazol-4-yl)furan-2-carboxamide formate] | 
5 | 0.0534 µM | 0.101 µM | O=C(Nc1cn([C@H]2CC[C@@H](O)CC2)nc1-c1ccccn1)c1ccc(-c2cn[nH]c2)o1 [Compound I-124, N-(1-((1s,4s)-4-hydroxycyclohexyl)-3-(pyridin-2-yl)-1H-pyrazol-4-yl)-5-(1H-pyrazol-4-yl)furan-2-carboxamide formate] | 
6 | 0.0819 µM | 0.0215 µM | O=C(Nc1cn([C@H]2CC[C@H](O)CC2)nc1-c1ccccn1)c1ccc(-c2cn[nH]c2)o1 [Compound I-126, N-(1-((1r,4r)-4-hydroxycyclohexyl)-3-(pyridin-2-yl)-1H-pyrazol-4-yl)-5-(1H-pyrazol-4-yl)furan-2-carboxamide formate] | 
7 | 0.134 µM | 0.0604 µM | O=C(Nc1cn([C@H]2C[C@H](OCC(F)(F)F)C2)nc1-c1ccccn1)c1ccc(-c2cn[nH]c2)o1 [Compound I-128, 5-(1H-pyrazol-4-yl)-N-(3-(pyridin-2-yl)-1-(3-(2,2,2-trifluoroethoxy)cyclobutyl)-1H-pyrazol-4-yl)furan-2-carboxamide formate] | 
8 | 0.0483 µM | 0.023 µM | CCO[C@H]1CC[C@H](n2cc(NC(=O)c3ccc(-c4cn[nH]c4)o3)c(-c3ccccn3)n2)CC1 [Compound I-130, N-(1-((1r,4r)-4-ethoxycyclohexyl)-3-(pyridin-2-yl)-1H-pyrazol-4-yl)-5-(1H-pyrazol-4-yl)furan-2-carboxamide formate] | 
9 | 0.0812 µM |  | CCO[C@@H]1CC[C@H](n2cc(NC(=O)c3ccc(-c4cn[nH]c4)o3)c(-c3ccccn3)n2)C1 [Compound I-132, N-(1-((1S,3R)-3-ethoxycyclopentyl)-3-(pyridin-2-yl)-1H-pyrazol-4-yl)-5-(1H-pyrazol-4-yl)furan-2-carboxamide formate] | EC50 (IL-23 (p19/p40); formate): 0.103 µM
10 |  |  | CCO[C@@H]1CC[C@H](n2cc(NC(=O)c3ccc(-c4cn[nH]c4)o3)c(-c3ccccn3)n2)C1 [Compound I-133, N-(1-((1S,3R)-3-ethoxycyclopentyl)-3-(pyridin-2-yl)-1H-pyrazol-4-yl)-5-(1H-pyrazol-4-yl)furan-2-carboxamide] | EC50 (IL-23p19): 0.0806 µM; EC50 (IL-23 (p19/p40)): 0.387 µM
11 | 0.0296 µM | 0.091 µM | O=C(Nc1cn([C@H]2CC[C@@H](O)C2)nc1-c1ccccn1)c1ccc(-c2cn[nH]c2)o1 [Compound I-134, N-(1-((1S,3R)-3-hydroxycyclopentyl)-3-(pyridin-2-yl)-1H-pyrazol-4-yl)-5-(1H-pyrazol-4-yl)furan-2-carboxamide formate] | 
12 | 0.0448 µM | 0.0878 µM | O=C(Nc1cn([C@H]2CC[C@H](O)C2)nc1-c1ccccn1)c1ccc(-c2cn[nH]c2)o1 [Compound I-136, N-(1-((1S,3S)-3-hydroxycyclopentyl)-3-(pyridin-2-yl)-1H-pyrazol-4-yl)-5-(1H-pyrazol-4-yl)furan-2-carboxamide formate] | 
13 | 0.926 µM | 0.686 µM | CCO[C@H]1C[C@@H](n2cc(NC(=O)c3ccc(-c4cn[nH]c4)o3)c(-c3ccc(F)cn3)n2)C1 [Compound I-138, N-(1-((1s,3s)-3-ethoxycyclobutyl)-3-(5-fluoropyridin-2-yl)-1H-pyrazol-4-yl)-5-(1H-pyrazol-4-yl)furan-2-carboxamide formate] | 
14 | 0.799 µM | 0.224 µM | CCO[C@@H]1C[C@H](n2cc(NC(=O)c3ccc(-c4cn[nH]c4)o3)c(-c3ccccn3)n2)C1F (stereo partly drawn) [Compound I-140, N-(1-((1S,3R)-3-ethoxy-2-fluorocyclobutyl)-3-(pyridin-2-yl)-1H-pyrazol-4-yl)-5-(1H-pyrazol-4-yl)furan-2-carboxamide formate] | 
15 | 0.0689 µM | 0.0262 µM | CCO[C@H]1C[C@@H](n2cc(NC(=O)c3ccc(-c4cn[nH]c4)o3)c(-c3ncccc3F)n2)C1 [Compound I-142, N-(1-((1s,3s)-3-ethoxycyclobutyl)-3-(3-fluoropyridin-2-yl)-1H-pyrazol-4-yl)-5-(1H-pyrazol-4-yl)furan-2-carboxamide formate] | 
16 | 0.078 µM | 0.0343 µM | CCO[C@H]1C[C@@H](n2cc(NC(=O)c3ccc(-c4cn[nH]c4)o3)c(-c3cccc(F)n3)n2)C1 [Compound I-144, N-(1-((1s,3s)-3-ethoxycyclobutyl)-3-(6-fluoropyridin-2-yl)-1H-pyrazol-4-yl)-5-(1H-pyrazol-4-yl)furan-2-carboxamide formate] | 
17 | 0.149 µM | 0.37 µM | O=C(Nc1cn([C@H]2C[C@@H](OCC(F)(F)F)C2)nc1-c1ccccn1)c1ccc(-c2cn[nH]c2)o1 [Compound I-146, 5-(1H-pyrazol-4-yl)-N-(3-(pyridin-2-yl)-1-((1s,3s)-3-(2,2,2-trifluoroethoxy)cyclobutyl)-1H-pyrazol-4-yl)furan-2-carboxamide formate] | 
18 | 0.173 µM | 0.11 µM | CCO[C@H]1C[C@@H](n2cc(NC(=O)c3ccc(-c4cn[nH]c4)o3)c(-c3cc(F)ccn3)n2)C1 [Compound I-148, N-(1-((1s,3s)-3-ethoxycyclobutyl)-3-(4-fluoropyridin-2-yl)-1H-pyrazol-4-yl)-5-(1H-pyrazol-4-yl)furan-2-carboxamide formate] | 
19 | 0.0648 µM | 0.226 µM | O=C(Nc1cn([C@H]2C[C@@H](OCC(F)(F)F)C2)nc1-c1cccc(F)n1)c1ccc(-c2cn[nH]c2)o1 [Compound I-150, N-(3-(6-fluoropyridin-2-yl)-1-((1s,3s)-3-(2,2,2-trifluoroethoxy)cyclobutyl)-1H-pyrazol-4-yl)-5-(1H-pyrazol-4-yl)furan-2-carboxamide formate] | 
20 | 0.0319 µM | 0.0716 µM | O=C(Nc1cn([C@H]2C[C@@H](OCC(F)(F)F)C2)nc1-c1ncccc1F)c1ccc(-c2cn[nH]c2)o1 [Compound I-152, N-(3-(3-fluoropyridin-2-yl)-1-((1s,3s)-3-(2,2,2-trifluoroethoxy)cyclobutyl)-1H-pyrazol-4-yl)-5-(1H-pyrazol-4-yl)furan-2-carboxamide formate] | 
21 | 0.0595 µM | 0.105 µM | CCO[C@H]1C[C@@H](n2cc(NC(=O)c3ccc(-c4cn[nH]c4)o3)c(-c3nc(F)ccc3F)n2)C1 [Compound I-156, N-(3-(3,6-difluoropyridin-2-yl)-1-((1s,3s)-3-ethoxycyclobutyl)-1H-pyrazol-4-yl)-5-(1H-pyrazol-4-yl)furan-2-carboxamide] | 
22 | 0.129 µM | 0.779 µM | CC(C)(O)Cn1cc(NC(=O)c2csc(-c3cn[nH]c3)n2)c(-c2ccccn2)n1 [II-1, N-(1-(2-hydroxy-2-methylpropyl)-3-(pyridin-2-yl)-1H-pyrazol-4-yl)-2-(1H-pyrazol-4-yl)thiazole-4-carboxamide] | 
23 | 0.196 µM | 0.298 µM | CC(OC(=O)C(C)C)OC(=O)n1cc(-c2nc(C(=O)Nc3cn(C)nc3-c3ccccn3)cs2)cn1 (centres unmarked) [II-2, 1-(isobutyryloxy)ethyl 4-(4-((1-methyl-3-(pyridin-2-yl)-1H-pyrazol-4-yl)carbamoyl)thiazol-2-yl)-1H-pyrazole-1-carboxylate] | 
24 | 0.198 µM | 0.371 µM | CC(C)[C@H](NC(=O)OC(C)(C)C)C(=O)n1cc(-c2nc(C(=O)Nc3cn(C)nc3-c3ccccn3)cs2)cn1 [II-3, tert-butyl (S)-(3-methyl-1-(4-(4-((1-methyl-3-(pyridin-2-yl)-1H-pyrazol-4-yl)carbamoyl)thiazol-2-yl)-1H-pyrazol-1-yl)-1-oxobutan-2-yl)carbamate] | 
25 | 0.0861 µM | 0.307 µM | Cc1oc(=O)oc1Cn1cc(-c2nc(C(=O)Nc3cn(C)nc3-c3ccccn3)cs2)cn1 [II-4, 2-(1-((5-methyl-2-oxo-1,3-dioxol-4-yl)methyl)-1H-pyrazol-4-yl)-N-(1-methyl-3-(pyridin-2-yl)-1H-pyrazol-4-yl)thiazole-4-carboxamide] | 
